Test results reported in US11998549B2, “Methods of treating a vascular leakage-associated disease or disorder” (UNITY HEALTH TORONTO, priority 2019, dated 2024).

Experiments:
[1] = tested on: LPS-induced vascular leakage; assay: Vascular leakage (leaked red blood cells in tailfin) in LPS-treated zebrafish larvae; assay type: in vivo
Method: An LPS induced zebrafish sepsis model which mimics the hallmarks of human sepsis was developed (Philip et al., 2017). Zebrafish show varied susceptibility and responsiveness to LPS from different bacterial strains. Exposure of zebrafish larvae at 3 days post-fertilization (dpf) to two types of LPS (LPS from Escherichia coli 0111:B4 (Sigma) at 100 μg/ml for 5-6 hrs; or LPS from Salmonella at 27 μg/ml for 24 hrs) were both effective in inducing tail fin swelling, increased ROS production, increased vascular leakage and increased mortality.
3 dpf Tg (flk1:GFP; gata-1:Dsred) double transgenic larvae were exposed to Vehicle, LPS (100 μg/ml) or LPS+1 μM UNC0642 by static immersion for 6 h at 28.5° C. to induce endothe-lial dysfunction and the resulting leakage of red blood cells. The larvae were then imaged using a Leica fluorescence microscope (Leica Microsystems, Wetzlar, Germany). Red blood cells that leaked out into the tailfin region were quantified.
3 dpf larvae were exposed to LPS by immersion technique. […] Control larvae were exposed to egg water. Survival numbers were recorded and EC50s calculated. The percentage (%) of embryos showing vascular leakage was also recorded and 1050s calculated.

[2] = target: T1, active human EHMT2/G9a protein fragment (Homo sapiens, UniProt Q96KQ7); assay: G9a inhibitor in vitro histone methyltransferase assay; assay type: biochemical
T1 construct: active human EHMT2/G9a protein fragment (ab80323); purchased ab80323
T1 sequence (Q96KQ7 785-1210 limits assumed): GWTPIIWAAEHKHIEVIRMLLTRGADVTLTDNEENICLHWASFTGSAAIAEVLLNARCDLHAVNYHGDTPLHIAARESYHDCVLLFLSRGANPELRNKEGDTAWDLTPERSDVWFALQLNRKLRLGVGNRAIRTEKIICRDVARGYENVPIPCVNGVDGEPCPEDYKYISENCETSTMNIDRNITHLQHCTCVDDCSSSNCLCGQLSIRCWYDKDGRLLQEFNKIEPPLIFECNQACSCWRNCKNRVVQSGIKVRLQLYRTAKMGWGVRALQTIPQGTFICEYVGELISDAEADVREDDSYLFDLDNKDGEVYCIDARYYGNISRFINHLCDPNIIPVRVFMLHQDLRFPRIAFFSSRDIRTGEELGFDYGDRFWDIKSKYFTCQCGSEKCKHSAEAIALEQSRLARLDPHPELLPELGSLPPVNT
Description: The commercially available Histone H3 (K9) Methyltransferase Activity Quantification Assay Kit (ab113453) was used for this assay and a modified protocol was adopted. Briefly, the histone substrate is stably captured on the strip wells. Uninhibited G9a methyltransferase (active human EHMT2/G9a protein fragment (ab80323)) will transfer a methyl group to histone H3 substrate from Adomet to methylate the substrate at lysine 9. The methylated histone H3K9 can be recognized with a high-affinity antibody. The ratio or amount of methylated H3K9, which is directly proportional to enzyme activity, can be quantified through HRP-conjugated secondary antibody color development system. In the presence of inhibitors of G9a methyltransferase, this reaction will be inhibited. […] The color should change to yellow and absorbance can be read on a microplate reader at 450 nm within 2-15 minutes.
G9a activity or inhibition was calculated as follows: plot OD value versus amount of G9a Standard and determine the slope. […]

HUVEC monolayer = assay: Trans-endothelial electrical resistance (TEER) across HUVEC monolayer; assay type: cell-based, human; conditions: LPS 1 μg/ml + UNC0642 2.5 nM, 24 h post treatment
Method: To determine the functional significance of G9a inhibition in human cells, solute permeability and electrical resistance across a confluent HUVEC monolayer was assessed. For both experiments, HUVEC were seeded at 1×10^6 cells/ml on Matrigel™ coated 3-μm pore size transwell inserts in 24-well plates from BD Discovery Labware™ (catalog number 354575) and grown to confluency. The cells were then treated with either the vehicle, LPS (1 μg/ml) or LPS (1 μg/ml)+UNC0642 (2.5 nM).
Assessment of trans-endothelial electrical resistance (TEER): At 24 h post treatment, trans endothelial electrical resistance across the HUVEC monolayer was measured using the Endohm-12 (WPI, Florida). UNC0642 improves transendothelial electrical resistance (TEER) which is also an indicator of vessel integrity and stability. (FIG. 11, Panel B)

In the case of `COc1cc2c(NC3CCN(C(C)C)CC3)nc(N3CCC(F)(F)CC3)nc2cc1OCCCN1CCCC1` [UNC0642, 2-(4,4-Difluoropiperidin-1-yl)-6-methoxy-N-[1-(propan-2-yl)piperidin-4-yl]-7-(3-(pyrrolidin-1-yl)propoxy]quinazolin-4-amine], the LPS-induced vascular leakage ([1]; 3 dpf larvae, LPS 100 μg/ml + 1 μM UNC0642, 6 h, leaked red blood cells at tail fin) is reported as “significantly reduced”, the “Rescue of sepsis-associated vascular leakage” value ([1]; comparison of UNC0642 and A366, zebrafish larvae, 27 μg/ml LPS, 24 h) is reported as “able to rescue” and the G9a methyltransferase activity [2] is reported as “inhibits G9a methyltransferase activity in a dose dependent manner”. The “Transendothelial electrical resistance (TEER)” value (HUVEC monolayer) was “improves”.
